Measurements from US20150366890A1, “COMPOSITIONS AND METHODS FOR TREATING FUNGAL INFECTIONS” (TRUSTEES OF BOSTON UNIVERSITY, priority 2013, published 2015).

Tested on: S. cerevisiae
Assay: Mitochondrial activity by MitoTracker Red fluorescence
Assay type: cell-based
Details: drug added to glucose-incubated (SC, 2% glucose) S. cerevisiae
Procedure: It was next sought to assess the mitochondrial activity of AF-treated fungal cells. Yhe MitoTracker Red dye, which enters the mitochondrial matrix by utilizing the proton motive force and thus labels metabolically active mitochondria in viable cells was used (Arita et al., 2006; Tomas et al., 2011). Exponential phase S. cerevisiae were incubated in glucose-free synthetic complete (SC) media for 30 min and then switched to SC containing 2% glucose or non-fermentable acetate for 1.5 hours.
Overnight yeast cultures were diluted into the indicated media and grown to an OD600 of 0.2, at which point the AFs were added. Colony forming units (CFU) were measured by plating six serial dilutions onto YPD agar plates. Cells treated with MCZ were washed before serial dilution to stop growth inhibition associated with high concentrations of MCZ. CFU were counted after three days of incubation on agar plates. When indicated, thiourea (Fluka) was added 30 min prior to the addition of AFs. HPF (10 μM) (Invitrogen) and Mito Tracker (1 μM) (Invitrogen) dyes were added to PBS-washed cells at the indicated time points and incubated for 30 min prior to flow cytometry measurements, which were taken on the FACSCalibur (Becton-Dickinson). All experiments described in this section were conducted in 0.5 ml of SDC in 24-well plates incubated at 900 rpm and 37° C. for C. albicans and 30° C. and 300 rpm for S. cerevisiae. TUNEL assays were conducted as previously described (Ribeiro et al., 2006) and are described in detail in the TUNEL section of the Experimental Procedures.

C[C@@H]1[C@H](O)[C@@H](C)/C=C/C=C/C=C/C=C/C=C/C=C/C=C/[C@H](O[C@@H]2O[C@H](C)[C@@H](O)[C@H](N)[C@@H]2O)C[C@@H]2O[C@](O)(C[C@@H](O)C[C@@H](O)[C@H](O)CC[C@@H](O)C[C@@H](O)CC(=O)O[C@H]1C)C[C@H](O)[C@H]2C(=O)O [AMB, amphotericin B]
increase of MitoTracker fluorescence: 60 fold
